Source: PubChem BioAssay (NCI)
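Five compound concentrations were applied to cells in 96-well plates for 48 hours; endpoints were derived by simple linear interpolation of the resulting dose-response curve. At the TGI there is no net growth.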

What was measured:
Experiment in all cases: NCI anticancer screen, dose series, 48 h
[1] = tested on: 786-0 renal
[2] = tested on: A498 renal
[3] = tested on: A549 NSCLC
[4] = tested on: ACHN renal
[5] = tested on: BT-549 breast
[6] = tested on: CAKI-1 renal
[7] = tested on: CCRF-CEM leukemia
[8] = tested on: COLO 205 colon
[9] = tested on: DU-145 prostate
[10] = tested on: EKVX NSCLC
[11] = tested on: HCC-2998 colon
[12] = tested on: HCT-116 colon
[13] = tested on: HCT-15 colon
[14] = tested on: HL-60(TB) leukemia
[15] = tested on: HOP-62 NSCLC
[16] = tested on: HOP-92 NSCLC
[17] = tested on: HS 578T breast
[18] = tested on: HT29 colon
[19] = tested on: IGROV1 ovarian
[20] = tested on: K-562 leukemia
[21] = tested on: KM12 colon
[22] = tested on: LOX IMVI melanoma
[23] = tested on: M14 melanoma
[24] = tested on: MALME-3M melanoma
[25] = tested on: MCF7 breast
[26] = tested on: MDA-MB-231 breast
[27] = tested on: MDA-MB-435
[28] = tested on: MDA-N
[29] = tested on: MOLT-4 leukemia
[30] = tested on: NCI-H226 lung
[31] = tested on: NCI-H23 lung
[32] = tested on: NCI-H460 lung
[33] = tested on: NCI-H522 lung
[34] = tested on: NCI/ADR-RES ovarian
[35] = tested on: OVCAR-3 ovarian
[36] = tested on: OVCAR-4 ovarian
[37] = tested on: OVCAR-5 ovarian
[38] = tested on: OVCAR-8 ovarian
[39] = tested on: PC-3 prostate
[40] = tested on: RPMI-8226 leukemia
[41] = tested on: RXF 393 renal
[42] = tested on: SF-268 CNS
[43] = tested on: SF-295 CNS
[44] = tested on: SF-539 CNS
[45] = tested on: SK-MEL-2 melanoma
[46] = tested on: SK-MEL-28 melanoma
[47] = tested on: SK-MEL-5 melanoma
[48] = tested on: SK-OV-3 ovarian
[49] = tested on: SN12C renal
[50] = tested on: SNB-19 CNS
[51] = tested on: SNB-75 CNS
[52] = tested on: SW-620 colon
[53] = tested on: T-47D breast
[54] = tested on: TK-10 renal
[55] = tested on: U251 CNS
[56] = tested on: UACC-257 melanoma
[57] = tested on: UACC-62 melanoma
[58] = tested on: UO-31 renal

CCCCCCCCCCCCCCCCCCNc1nc(=O)n(C2CC(O)C(COP(=O)(O)OCC(COP(=O)(O)OC3C(CO)OC(n4ccc(N)nc4=O)C3O)OCCCCCCCCCCCCCCCCCC)O2)cc1F (stereo not given)
TGI [1]: 33.3 µM | TGI [2]: > 100 µM | TGI [3]: > 100 µM | TGI [4]: > 100 µM | TGI [5]: > 100 µM | TGI [6]: > 100 µM | TGI [7]: > 100 µM | TGI [8]: 37.7 µM | TGI [9]: > 100 µM | TGI [10]: > 100 µM | TGI [11]: > 100 µM | TGI [12]: > 100 µM | TGI [13]: > 100 µM | TGI [14]: > 100 µM | TGI [15]: > 100 µM | TGI [16]: > 100 µM | TGI [17]: > 100 µM | TGI [18]: > 100 µM | TGI [19]: > 100 µM | TGI [20]: > 100 µM | TGI [21]: > 100 µM | TGI [22]: 42.5 µM | TGI [23]: > 100 µM | TGI [24]: > 100 µM | TGI [25]: > 100 µM | TGI [26]: > 100 µM | TGI [27]: > 100 µM | TGI [28]: > 100 µM | TGI [29]: > 100 µM | TGI [30]: > 100 µM | TGI [31]: > 100 µM | TGI [32]: 30.9 µM | TGI [33]: > 100 µM | TGI [34]: > 100 µM | TGI [35]: > 100 µM | TGI [36]: > 100 µM | TGI [37]: > 100 µM | TGI [38]: > 100 µM | TGI [39]: 35.4 µM | TGI [40]: 74.2 µM | TGI [41]: 40.8 µM | TGI [42]: > 100 µM | TGI [43]: > 100 µM | TGI [44]: > 100 µM | TGI [45]: > 100 µM | TGI [46]: > 100 µM | TGI [47]: > 100 µM | TGI [48]: > 100 µM | TGI [49]: > 100 µM | TGI [50]: 56.5 µM | TGI [51]: > 100 µM | TGI [52]: > 100 µM | TGI [53]: > 100 µM | TGI [54]: > 100 µM | TGI [55]: 34.6 µM | TGI [56]: > 100 µM | TGI [57]: > 100 µM | TGI [58]: > 100 µM

CCO/C(O)=C(/C(=N)N1CCOCC1)C(=O)Nc1cccc(Cl)c1
TGI [1]: > 100 µM | TGI [2]: > 100 µM | TGI [3]: > 100 µM | TGI [4]: > 100 µM | TGI [5]: > 100 µM | TGI [6]: > 100 µM | TGI [7]: > 100 µM | TGI [8]: > 100 µM | TGI [9]: > 100 µM | TGI [10]: > 100 µM | TGI [11]: > 100 µM | TGI [12]: > 100 µM | TGI [13]: > 100 µM | TGI [14]: > 100 µM | TGI [15]: > 100 µM | TGI [17]: > 100 µM | TGI [18]: > 100 µM | TGI [19]: > 100 µM | TGI [20]: > 100 µM | TGI [21]: > 100 µM | TGI [22]: > 100 µM | TGI [23]: > 100 µM | TGI [24]: > 100 µM | TGI [25]: > 100 µM | TGI [26]: > 100 µM | TGI [27]: > 100 µM | TGI [28]: > 100 µM | TGI [29]: > 100 µM | TGI [30]: > 100 µM | TGI [31]: > 100 µM | TGI [32]: > 100 µM | TGI [33]: > 100 µM | TGI [34]: > 100 µM | TGI [35]: > 100 µM | TGI [36]: > 100 µM | TGI [37]: > 100 µM | TGI [38]: > 100 µM | TGI [39]: > 100 µM | TGI [40]: > 100 µM | TGI [41]: > 100 µM | TGI [42]: > 100 µM | TGI [43]: > 100 µM | TGI [44]: > 100 µM | TGI [45]: > 100 µM | TGI [46]: > 100 µM | TGI [48]: > 100 µM | TGI [49]: > 100 µM | TGI [50]: > 100 µM | TGI [51]: > 100 µM | TGI [52]: > 100 µM | TGI [53]: > 100 µM | TGI [54]: > 100 µM | TGI [55]: > 100 µM | TGI [56]: > 100 µM | TGI [57]: > 100 µM

CC(=O)O[C@H](C[C@@H](C)[C@H]1C(=O)[C@H](O)[C@@]2(C)C3CC[C@H]4C(C)(C)[C@@H](OC5OCC(O)C(O)C5O)CC[C@@]45C[C@@]35CC[C@]12C)[C@@H]1OC1(C)C (stereo not given in full)
TGI [1]: 30.2 µM | TGI [2]: 29.3 µM | TGI [3]: > 100 µM | TGI [4]: 29.4 µM | TGI [5]: 51.4 µM | TGI [6]: 33.3 µM | TGI [7]: > 100 µM | TGI [8]: 61.3 µM | TGI [9]: 37.7 µM | TGI [10]: 44.3 µM | TGI [11]: 29.8 µM | TGI [12]: 38 µM | TGI [13]: 55.4 µM | TGI [14]: 22.6 µM | TGI [15]: 31.1 µM | TGI [16]: 30.6 µM | TGI [17]: > 100 µM | TGI [18]: > 100 µM | TGI [19]: 29.7 µM | TGI [20]: 15.3 µM | TGI [21]: 53.8 µM | TGI [22]: > 100 µM | TGI [23]: 94.5 µM | TGI [24]: 32.4 µM | TGI [25]: 34.8 µM | TGI [26]: 34.7 µM | TGI [27]: 36.2 µM | TGI [28]: 40.2 µM | TGI [30]: 33.2 µM | TGI [31]: 55.4 µM | TGI [32]: 30.6 µM | TGI [33]: 33.8 µM | TGI [34]: > 100 µM | TGI [35]: 7.18 µM | TGI [36]: 64.5 µM | TGI [37]: 32 µM | TGI [38]: 41.3 µM | TGI [39]: 30.4 µM | TGI [40]: 26.4 µM | TGI [41]: 34.1 µM | TGI [42]: 46.7 µM | TGI [43]: 33.6 µM | TGI [44]: 29.8 µM | TGI [45]: 29.5 µM | TGI [46]: 44.7 µM | TGI [47]: 29.7 µM | TGI [48]: 26.4 µM | TGI [49]: 35.7 µM | TGI [50]: 65.4 µM | TGI [51]: 26.1 µM | TGI [52]: > 100 µM | TGI [53]: 63.6 µM | TGI [54]: 29.8 µM | TGI [55]: 29.9 µM | TGI [56]: 34.8 µM | TGI [57]: 27 µM | TGI [58]: 54.7 µM
